The values that follow come from patent US12162889B2, “Luminogens for biological applications” (THE HONG KONG UNIVERSITY OF SCIENCE AND TECHNOLOGY, priority 2016, dated 2024).

One series deals with HeLa cells. The series is described as follows: Cell imaging of living HeLa cells with AIE dots. In kind it is cell-based. The following applies: dye as AIE dots, 12 h, 37° C. As to the method: Generally, 1 mg of the AIEgen and 5 mg of DSPE-PEG-Biotin were dissolved in 1 mL of chloroform. Subsequently, 9 mL of Milli-Q water was added into the chloroform solution under sonication for 10 minutes at room temperature using a microtip probe sonicator with an 18 W output (XL2000, Misonix Incorp., USA). The mixture was stirred in the nitrogen flow overnight until the chloroform was completely evaporated. A clear solution was obtained, and the solution was filtered through a 0.45 μm microfilter to result in the formation of AIE dots.
Cell Culture: HeLa cells were cultured in MEM containing 10% FBS and antibiotics (100 units/mL penicillin and 100 µg/mL streptomycin) in a 5% CO2 humidity incubator at 37° C. All culture media were supplemented with 10% heat-inactivated FBS, 100 units/mL penicillin, and 100 μg/mL streptomycin. Before the experiment, the cells were precultured until confluence was reached.
Cell Imaging: HeLa cells were grown overnight on a 35 mm petri dish with a cover slip at 37° C. After removal of the medium, the adherent cells were washed twice with 1× phosphate buffered saline (PBS) buffer. The AIE dots were then added to the chamber. After incubation for 12 hours, the cells were washed three times with 1×PBS buffer. The cells were imaged on a Zeiss laser scanning confocal microscope and analyzed using ZEN 2009 software.

For series [1] the following is noted: in methanol; cited from earlier work.
The nature of another series: Two-photon absorption. In kind it is physicochemical. The source says:
The TPA spectrum of AIE dots in water with the wavelength range from 800-1000 nm at 20 nm intervals was investigated. […] Moreover, a 900 nm fs laser expects to have deeper penetration and better focusing capability than the commonly used 770-860 nm Ti:Sapphire fs laser. Therefore, the TTS dots are a promising candidate for two-photon deep-tissue in vivo bioimaging.

The nature of series [2]: Energy band gap and HOMO/LUMO from absorption onset and onset oxidation potential. In kind it is physicochemical.
Series [3] can be described thus: Photoluminescence (emission) spectra in solvents, THF/water aggregates, powder and dots. In kind it is physicochemical. The source says: The photoluminescence (PL) spectrum of TTS (FIG. 66) is basically a flat line parallel to the abscissa in pure THF. The spectral pattern remains unchanged at water content up to 40%. Afterwards, the PL intensity increases dramatically. The higher the water fraction, the stronger the emission intensity. The emission peak reaches to ˜636 nm. The emission intensity reaches its maximum value at 90% water content, which is 170-fold higher than that in pure THF
When the solvent polarity was increased from Tol to NMP, the emission of TTB, TTA, and TTS are red-shifted with an emission quenching effect. […] However, compared with TTB molecule, TTA and TTS molecules are more sensitive to solvent polarity. TTA and TTS are emissive in Tol, weak emissive in DO and nonemissive in THF with medium polarity. In contrast, TTB is highly emissive in Tol, DO, and THF, and even in the high polarity solvent NMP, TTB is still emissive observed by the naked eye. […] It is probable that even in THF with medium polarity, the conformation of the TTA or TTS becomes twisted and the charge becomes separated.
In pure THF solution, it is non-emissive. The PL intensity remains unchanged at water fraction fw<50%. Afterwards, the PL intensity reaches its maximum value at 90% water content with emission peak at ˜635 nm. Thus, both TTS and TTA are AIE-active.
(§1) Due to the higher ΦF and much better processability of TTS, it was chosen for further biological applications. For easy dispersion of the highly hydrophobic TTS molecules in an aqueous environment, the TTS dots were formulated through a simple procedure by a nanoprecipitation method with amphiphilic and biocompatible 1,2-distearoyl-sn-glycero-3-phosphoethanolamine-N [methoxy(polyethyleneglycol)-2000] (DSPE-PEG 2000) as the encapsulation matrix (FIG. 70). […] TTS dots have an absorption maxima at 497 nm in aqueous media, which fits well with the commercial laser excitation at 488 nm. The strong emission of TTS dots (FIG. 71B) peaks at the red region (630 nm) and tails to the near-infrared region (820 nm). It is noteworthy that the Stokes shift of the TTS dots is big enough (>130 nm) to solve the serious problem of the self-quenching effect common in conventional organic dye molecules.

Series [4] in a line: Fluorescence quantum yield and lifetime. It is filed as physicochemical.
The nature of series [5]: Absorption spectra in solvents / aqueous media. In kind it is physicochemical.
Text: With introduction of extra arylamine units to the TTB molecule, the absorption peak of TTS is slightly red-shifted due to longer electronic conjugation.
as §1

Where [6] appears, read: aggregate, excitation 900 nm laser.

Each structure is given as a SMILES string.

As to `COc1ccc(C(=C(c2ccccc2)c2ccc(-c3sc(-c4ccc(C(=C(c5ccc(OC)cc5)c5ccc(OC)cc5)c5ccccc5)cc4)c4nc(-c5ccccc5)c(-c5ccccc5)nc34)cc2)c2ccc(OC)cc2)cc1` [MTPE-TP, 5,7-bis(4-(2,2-bis(4-methoxyphenyl)-1-phenylvinyl)phenyl)-2,3-diphenylthieno[3,4-b′]pyrazine], the fluorescence in cells result in the series with HeLa cells is “intense red fluorescence was observed in the cellular cytoplasms”.

Consider `CCN(CC)c1ccc2c(-c3ccccc3C(=O)O)c3ccc(=[N+](CC)CC)cc-3oc2c1.[Cl-]` [rhodamine B], for which the ΦF of reference in series [1] is 41.9%.

As for `CCCCCCCCN1c2ccc(-c3ccc(-c4ccc(N(c5ccccc5)c5ccccc5)cc4)c4nsnc34)cc2Sc2cc(-c3ccc(-c4ccc(N(c5ccccc5)c5ccccc5)cc4)c4nsnc34)ccc21` [PTZ-BT-TPA, 4,4′-((10-octyl-10H-phenothiazine-3,7-diyl)bis(benzo[c][1,2,5]thiadiazole-7,4-diyl))bis(N,N-diphenylaniline)], the two-photon absorption properties result in “Two-photon absorption” is listed as “excellent two-photon absorption properties”. Also, in the series on HeLa cells, the fluorescence in cells result was “intense red fluorescence was observed in the cellular cytoplasms”.

On to `c1ccc(C(=C(c2ccccc2)c2ccc(-c3ccc(N(c4ccc(-c5ccc(C(=C(c6ccccc6)c6ccccc6)c6ccccc6)cc5)cc4)c4ccc(-c5sc(-c6ccc(N(c7ccc(-c8ccc(C(=C(c9ccccc9)c9ccccc9)c9ccccc9)cc8)cc7)c7ccc(-c8ccc(C(=C(c9ccccc9)c9ccccc9)c9ccccc9)cc8)cc7)cc6)c6c5N=S=N6)cc4)cc3)cc2)c2ccccc2)cc1` [TPE-TPA-TT, N,N′-(thieno[3,4-b][1,2,5]thiadiazole-5,7-diylbis(4,1-phenylene))bis(4′-(1,2,2-triphenylvinyl)-N-(4′-(1,2,2-triphenylvinyl)-[1,1′-biphenyl]-4-yl)-[1,1′-biphenyl]-4-amine)], for which, in the series “Two-photon absorption”, the two-photon absorption properties entry is given as “excellent two-photon absorption properties”.

As to `c1ccc(-c2nc3c(-c4ccc(N(c5ccccc5)c5cccc6ccccc56)cc4)c4nsnc4c(-c4ccc(N(c5ccccc5)c5cccc6ccccc56)cc4)c3nc2-c2ccccc2)cc1` [NPB-TQ, N,N′-((6,7-diphenyl-[1,2,5]thiadiazolo[3,4-g]quinoxaline-4,9-diyl)bis(4,1-phenylene))bis(N-phenylnaphthalen-1-amine)], the two-photon absorption properties result in “Two-photon absorption” is “excellent two-photon absorption properties”.

Regarding `c1ccc(C(=C(c2ccccc2)c2ccc(N(c3ccc(-c4ccc(-c5ccc(N(c6ccc(C(=C(c7ccccc7)c7ccccc7)c7ccccc7)cc6)c6ccc(N(c7ccccc7)c7ccccc7)cc6)cc5)c5nsnc45)cc3)c3ccc(N(c4ccccc4)c4ccccc4)cc3)cc2)c2ccccc2)cc1` [TTS], the LUMO in series [2] (LUMO = HOMO + Eg) is reported as −2.84 eV. Further, the “Eg energy band gap” value in series [2] (calculated from the onset of the absorption spectrum) was 2.21 eV. The HOMO in series [2] (calculated from the onset oxidation potential) is given as −5.05 eV. Besides, in series [3] (THF solution), the “λem emission maximum soln” value was 641. In addition, in series [3] (THF/water mixture (1:9 by volume)), the “λem emission maximum aggr” value was found to be 636. Moreover, the “emission intensity at 90% water content relative to pure THF” value in series [3] (THF/water, 10 μM, excitation 480 nm) was 170 fold. Moreover, the “emission peak in THF/water mixture” value in series [3] (aggregate state, high water content (90%)) is approximately 636 nm. The “λem emission maximum powder” value in series [3] (solid powder) stood at 636. Further, the λem emission maximum in series [3] (solvent DO, excitation 480 nm) was determined as 640 nm; in series [3] (solvent Tol, excitation 480 nm) it was 623 nm. In the series “Two-photon absorption” (setting [6]), the “maximum two-photon absorption cross section” value is 310 GM. Further, in series [4] (THF solution, in parentheses), the “fluorescence quantum yield ΦF soln” value is “(0.1) %”. For the same compound, the “quantum efficiency relative to rhodamine B” value in series [4] (setting [6]) was 38.5%. The “τ fluorescence lifetime of solid powders” value in series [4] (solid powder) is reported as 1.86 ns. Also, the “solid powders fluorescence quantum yield ΦF” value in series [4] (solid powder, in parentheses) is reported as “(34.1) %”. Also, in series [5] (THF (Table 2)), the “λab absorption maximum in THF” value turned out to be 481 nm. Also, the λab absorption maximum in series [5] (solvent DO) is reported as 478 nm; in series [5] (solvent NMP), 484 nm; in series [5] (solvent THF), 481 nm; in series [5] (solvent Tol), 484 nm.
